From patent US7803801B2, “Aminopyridine compounds having Syk inhibitory activity” (Japan Tobacco, Inc., priority 2005, dated 2010)
pIC50: −log10 of the molar value. Counter-ions that a name gives are not always drawn. Like-named read-outs stand apart in the source and are kept apart here.

What was measured:
[1] = target: GST-Syk Full Protein (human) (Homo sapiens, UniProt P43405); test: Syk kinase inhibition test (HTRF method); format: biochemical
How it was run: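 Human GST-Syk full-length (6.4 nM) phosphorylated biotin-EDPDYEWPSA-NH2 (250 nM) with 100 μM ATP in HEPES pH 7.0/MgCl2 buffer, 2% DMSO, 30 min at room temperature. EDTA stop, then HTRF detection (streptavidin-XL665, Eu anti-phosphotyrosine) after 1 h; 665/620 ratio read.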

[2] = test system: cultured human mast cells; test: Degranulation inhibition test using cultured human mast cells (IgE cross-linking, β-Hexosaminidase release); format: cell-based; settings: cultured human mast cells, read-out: human degranulation ave. IC50
How it was run: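 CD34+ cord-blood cells cultured ≥8 weeks with SCF/IL-6/IL-3; FcεRI primed 5 days with rhIL-4 (1 ng/mL) and hIgE (0.5 μg/mL). Compound (0.1% DMSO) preincubated 10 min at 37 °C, then anti-IgE (final 10 μg/mL) 30 min; released β-hexosaminidase read at 405 nm versus total lysate, IC50 (M).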

[3] = Tables 2-x, thiophene compounds B, read-out: sykHTRK ave IC50
[4] = Mast cell, Tables 2-x, thiophene compounds B
[5] = Tables 1-x, compounds A, read-out: sykHTRF ave IC50
[6] = Mast cell, Tables 1-x, compounds A
[7] = HTRF, 100 μM ATP, 30 min room temperature, average, read-out: sykHTRF ave IC50
[8] = Mast cell, anti-hIgE stimulation, β-Hexosaminidase index, average

Row | Compound | pIC50 [1, 5] | pIC50 [2, 6] | pIC50 [1, 7] | pIC50 [2, 8] | further results
1 | COC(=O)c1ccc(-c2cccc(Nc3cc(C)ccn3)n2)s1 [Compound B-19] |  |  |  |  | pIC50 [1, 3]: 6.00 to 7.00; pIC50 [2, 4]: < 6.00
2 | Cc1ccnc(Nc2cccc(-c3cnc(N(CC(N)=O)[C@H]4CC[C@H](C(=O)O)CC4)s3)n2)c1 [Compound A-600] | 6.00 to 7.00 | < 6.00 |  |  | 
3 | COc1ccnc(Nc2cccc(-c3cnc(N4CCC(C(N)=O)CC4)s3)n2)c1 [Compound A-517, 1-{5-[6-(4-methoxypyridin-2-ylamino)pyridin-2-yl]thiazol-2-yl}piperidine-4-carboxamide] | > 7.00 | 6.00 to 7.00 |  |  | 
4 | Cc1ccnc(Nc2cccc(-c3cnc(N(C)[C@H]4CC[C@H](C(=O)O)CC4)s3)n2)c1 [Compound A-592, trans-4-(N-methyl-N-{5-[6-(4-methylpyridin-2-ylamino)pyridin-2-yl]thiazol-2-yl}amino)cyclohexanecarboxylic acid] | > 7.00 | 6.00 to 7.00 |  |  | 
5 | CC1(c2ccnc(Nc3cccc(-c4cnc(N5CC[C@@H](O)C5)s4)n3)c2)OCCO1 [Compound A-548, (R)-1-(5-{6-[4-(2-methyl-[1,3]dioxolan-2-yl)pyridin-2-ylamino]pyridin-2-yl}thiazol-2-yl)pyrrolidin-3-ol] | > 7.00 | 6.00 to 7.00 |  |  | 
6 | Cc1ccnc(Nc2cccc(-c3sc(N4CCC(C(N)=O)CC4)nc3C)n2)c1 [Compound A-429, 1-{4-methyl-5-[6-(4-methylpyridin-2-ylamino)pyridin-2-yl]thiazol-2-yl}piperidine-4-carboxamide] | > 7.00 | < 6.00 |  |  | 
7 | CC(=O)O/N=C(\C)c1ccc(-c2cccc(Nc3cc(C)ccn3)n2)s1 [Compound B-86] |  |  |  |  | pIC50 [1, 3]: 6.00 to 7.00; pIC50 [2, 4]: 6.00 to 7.00
8 | Cc1ccnc(Nc2cccc(-c3cnc([C@H]4CC[C@H](c5noc(=O)[nH]5)CC4)s3)n2)c1 [Compound A-325, 3-(trans-4-{5-[6-(4-methylpyridin-2-ylamino)pyridin-2-yl]thiazol-2-yl}cyclohexyl)-4H-[1,2,4]oxazol-5-one] |  |  | > 7.00 | 6.00 to 7.00 | 
9 | CC(=O)c1ccnc(Nc2cccc(-c3cnc(N4CC[C@@H](O)C4)s3)n2)c1 [Compound A-549, 1-(2-{6-[2-((R)-3-hydroxypyrrolidin-1-yl)thiazol-5-yl]pyridin-2-ylamino}pyridin-4-yl)ethanone] | > 7.00 | 6.00 to 7.00 |  |  | 
10 | Cc1ccnc(Nc2cccc(-c3ccc(C(=O)N4CCC[C@H]4CO)s3)n2)c1 [Compound B-80] |  |  |  |  | pIC50 [1, 3]: 6.00 to 7.00; pIC50 [2, 4]: 6.00 to 7.00
11 | Cc1ccnc(Nc2cccc(-c3cnc([C@H]4CC[C@H](C(=O)N5CCC(NS(C)(=O)=O)C5)CC4)s3)n2)c1 (stereo partly drawn) [Compound A-312, N-[1-(trans-4-{5-[6-(4-methylpyridin-2-ylamino)pyridin-2-yl]thiazol-2-yl]cyclohexanecarbonyl)pyrrolidin-3-yl}methanesulfonamide] |  |  | > 7.00 | 6.00 to 7.00 | 
12 | CCOC(=O)CC(C)(C)NC(=O)c1ncc(-c2cccc(Nc3cc(C)ccn3)n2)s1 [Compound A-155] |  |  | 6.00 to 7.00 | < 6.00 | 
13 | CCOC(=O)c1nc([C@H](C)N)sc1-c1cccc(Nc2cc(C)ccn2)n1 [Compound A-101] |  |  | < 6.00 | < 6.00 | 
14 | Cc1ccnc(Nc2cccc(-c3cnc([C@H]4CC[C@H](C(=O)N5CCC[C@@H]5CO)CC4)s3)n2)c1 [Compound A-286, ((R)-2-hydroxymethylpyrrolidin-1-yl)-(trans-4-{5-[6-(4-methylpyridin-2-ylamino)pyridin-2-yl]thiazol-2-yl}cyclohexyl)metanone] |  |  | > 7.00 | 6.00 to 7.00 | 
15 | Cc1ccnc(Nc2cccc(-c3cccs3)n2)c1 [Compound B-27] |  |  |  |  | pIC50 [1, 3]: 6.00 to 7.00; pIC50 [2, 4]: < 6.00
16 | CC1(c2ccnc(Nc3cccc(-c4cnc(N5CCC[C@@H](C(=O)O)C5)s4)n3)c2)OCCO1 [Compound A-558, (R)-1-{5-(6-[4-(2-methyl-[1,3]dioxolan-2-yl)pyridin-2-ylamino]pyridin-2-yl}thiazol-2-yl)piperidine-3-carboxylic acid] | > 7.00 | < 6.00 |  |  | 

Row | Compound | pIC50 [1, 5] | pIC50 [2, 6] | pIC50 [1, 7] | pIC50 [2, 8] | further results
17 | CC(=O)NC(C)(C)Cc1ncc(-c2cccc(Nc3cc(C)ccn3)n2)s1 [Compound A-334, N-(1,1-dimethyl-2-{5-[6-(4-methylpyridin-2-ylamino)pyridin-2-yl]thiazol-2-yl}ethyl)acetamide] |  |  | > 7.00 | > 7.00 | 
18 | Cc1ccnc(Nc2cccc(-c3cnc(N(C)CC(=O)NCC(=O)O)s3)n2)c1 [Compound A-571, [2-(N-methyl-N-{5-[6-(4-methylpyridin-2-ylamino)pyridin-2-yl]thiazol-2-yl}amino)acetylamino]acetic acid dihydrochloride] | > 7.00 | < 6.00 |  |  | 
19 | CC(=O)N[C@H]1CN(C(=O)COCc2ncc(-c3cccc(Nc4cc(C)ccn4)n3)s2)C[C@@H]1O [Compound A-411] | < 6.00 | < 6.00 |  |  | 
20 | Cc1ccnc(Nc2cccc(-c3cnc([C@@H](N)CCC(=O)OCc4ccccc4)s3)n2)c1 [Compound A-97] |  |  | 6.00 to 7.00 | 6.00 to 7.00 | 
21 | CC(=O)Oc1ccc(CC(OC(C)=O)c2ncc(-c3cccc(Nc4cc(C)ccn4)n3)s2)cc1 (centres unmarked) [Compound A-360] |  |  | < 6.00 | < 6.00 | 
22 | CC(=O)N[C@@H](C)c1ncc(-c2cccc(Nc3cc(C)ccn3)n2)s1 [Compound A-10, N—((S)-1-{5-[6-(4-methylpyridin-2-ylamino)pyridin-2-yl]thiazol-2-yl}ethyl)acetamide] |  |  | 6.00 to 7.00 | 6.00 to 7.00 | 
23 | Cc1ccnc(Nc2cccc(-c3cnc(C(=O)NCCO)s3)n2)c1 [Compound A-29] |  |  | 6.00 to 7.00 | 6.00 to 7.00 | 
24 | Cc1ccnc(Nc2cccc(-c3cnc([C@H]4CC[C@H](CN)CC4)s3)n2)c1 [Compound A-219, trans-4-{5-[6-(4-methylpyridin-2-ylamino)pyridin-2-yl]thiazol-2-yl}cyclohexylmethylamine] |  |  | > 7.00 | < 6.00 | 
25 | Cc1ccnc(Nc2cccc(-c3cnc([C@H]4CC[C@H](C(=O)N5C[C@H](O)C[C@@H](O)C5)CC4)s3)n2)c1 [Compound A-226] |  |  | 6.00 to 7.00 | 6.00 to 7.00 | 
26 | Cc1ccnc(Nc2cccc(-c3cnc(N4CCC(CC(=O)O)CC4)s3)n2)c1 [Compound A-15, (1-{5-[6-(4-methylpyridin-2-ylamino)pyridin-2-yl]thiazol-2-yl}piperidin-4-yl)acetic acid dihydrochloride] |  |  | > 7.00 | 6.00 to 7.00 | 
27 | CC(=O)N[C@H]1CN(Cc2ncc(-c3cccc(Nc4cc(C)ccn4)n3)s2)C[C@@H]1O [Compound A-414] | 6.00 to 7.00 | 6.00 to 7.00 |  |  | 
28 | Cc1ccnc(Nc2cccc(-c3cnc(C4CCCC(C(=O)N5CCC(O)CC5)C4)s3)n2)c1 (centres unmarked) [Compound A-271] |  |  | 6.00 to 7.00 |  | pIC50 ([2]; anti-hIgE stimulation, β-Hexosaminidase index, average): 6.00 to 7.00
29 | Cc1ccnc(Nc2cccc(-c3cnc(C(O)Cc4ccc(O)cc4)s3)n2)c1 (centres unmarked) [Compound A-362, 4-(2-hydroxy-2-{5-[6-(4-methylpyridin-2-ylamino)pyridin-2-yl]thiazol-2-yl}ethyl)phenol] |  |  | > 7.00 | 6.00 to 7.00 | 
30 | Cc1ccnc(Nc2cccc(-c3cnc(N(C)Cc4ccc(C(=O)O)cc4Cl)s3)n2)c1 [Compound A-604, 3-chloro-4-[(N-methyl-N-{5-[6-(4-methylpyridin-2-ylamino)pyridin-2-yl]thiazol-2-yl}amino)methyl]benzoic acid dihydrochloride] | > 7.00 | 6.00 to 7.00 |  |  | 
31 | Cc1ccnc(Nc2cccc(-c3ccc(C(=O)NCCC(=O)O)s3)n2)c1 [Compound B-98] |  |  |  |  | pIC50 [1, 3]: 6.00 to 7.00; pIC50 [2, 4]: < 6.00
